Measurements taken from patent publication US20220213092A1, “BICYCLIC PYRAZOLE BRUTON'S TYROSINE KINASE INHIBITORS” (AbbVie Inc., priority 2020, published 2022).

Legend:
[1] = biological target: T1, BMX (Homo sapiens, UniProt P51813); assay: Other kinase MSA: BMX; format: biochemical
T1 sequence (P51813 1-675): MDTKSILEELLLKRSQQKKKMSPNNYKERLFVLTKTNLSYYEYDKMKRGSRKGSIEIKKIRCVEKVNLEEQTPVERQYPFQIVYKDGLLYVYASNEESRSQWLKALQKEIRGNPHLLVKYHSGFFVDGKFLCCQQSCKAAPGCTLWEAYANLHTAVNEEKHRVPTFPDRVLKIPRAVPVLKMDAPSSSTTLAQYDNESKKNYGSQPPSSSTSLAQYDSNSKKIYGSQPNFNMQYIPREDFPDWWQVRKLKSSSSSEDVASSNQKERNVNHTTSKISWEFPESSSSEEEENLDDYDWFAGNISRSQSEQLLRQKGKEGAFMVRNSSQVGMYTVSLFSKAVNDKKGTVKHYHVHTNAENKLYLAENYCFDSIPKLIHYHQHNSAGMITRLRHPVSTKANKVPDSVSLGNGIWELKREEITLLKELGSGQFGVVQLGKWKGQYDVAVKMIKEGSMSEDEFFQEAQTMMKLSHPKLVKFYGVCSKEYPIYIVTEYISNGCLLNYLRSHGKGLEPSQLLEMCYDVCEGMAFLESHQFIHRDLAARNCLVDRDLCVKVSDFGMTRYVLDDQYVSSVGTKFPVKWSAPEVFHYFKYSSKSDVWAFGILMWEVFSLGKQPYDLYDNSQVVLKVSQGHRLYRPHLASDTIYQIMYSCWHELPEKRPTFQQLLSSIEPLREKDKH
Description: (§1) Kinase activity, unless otherwise indicated, was measured in vitro using an electrophoretic mobility shift assay (MSA). The phosphorylation of a peptide substrate by BTK and other kinases was measured. The kinase reactions were assembled in a total volume of 25 μL per well in 384 well plates. The following was added to each well: compound buffer (or control); enzyme buffer; and substrate buffer, as further described below.
(§2) Enzyme and compound/inhibitor were optionally pre-incubated. To each well was added: 8 μL of 2.5×ATP and substrate in 1× Master Buffer (1× Master Buffer as described above). The plate was incubated at room temperature for 3 hours. […] OG488 was Oregon Green dye, which was conjugated to the peptide substrate. […] The kinase activity for the kinases in Table 3 were measured at 3 hours incubation time, except that in the case of MAP2K1 and MAP2K2 assay, pre-activation of ERK was done for 30 min with 6 μM of ATP, and then the detection of activated ERK in the presence of compounds was done after 60 minutes of incubation.
(§3) The terminated reactions were analyzed using a 12 channel LABCHIP® 3000 microfluidic detection instrument (available from Caliper Life Sciences, Waltham, Mass.). […] Change in the relative fluorescence intensity of the substrate and product peaks was the parameter measured, reflecting enzyme activity. […]

[2] = biological target: ERBB4 (Homo sapiens, UniProt Q15303); assay: biochemical
Chain of ERBB4 (Q15303 26-1308, species assumed): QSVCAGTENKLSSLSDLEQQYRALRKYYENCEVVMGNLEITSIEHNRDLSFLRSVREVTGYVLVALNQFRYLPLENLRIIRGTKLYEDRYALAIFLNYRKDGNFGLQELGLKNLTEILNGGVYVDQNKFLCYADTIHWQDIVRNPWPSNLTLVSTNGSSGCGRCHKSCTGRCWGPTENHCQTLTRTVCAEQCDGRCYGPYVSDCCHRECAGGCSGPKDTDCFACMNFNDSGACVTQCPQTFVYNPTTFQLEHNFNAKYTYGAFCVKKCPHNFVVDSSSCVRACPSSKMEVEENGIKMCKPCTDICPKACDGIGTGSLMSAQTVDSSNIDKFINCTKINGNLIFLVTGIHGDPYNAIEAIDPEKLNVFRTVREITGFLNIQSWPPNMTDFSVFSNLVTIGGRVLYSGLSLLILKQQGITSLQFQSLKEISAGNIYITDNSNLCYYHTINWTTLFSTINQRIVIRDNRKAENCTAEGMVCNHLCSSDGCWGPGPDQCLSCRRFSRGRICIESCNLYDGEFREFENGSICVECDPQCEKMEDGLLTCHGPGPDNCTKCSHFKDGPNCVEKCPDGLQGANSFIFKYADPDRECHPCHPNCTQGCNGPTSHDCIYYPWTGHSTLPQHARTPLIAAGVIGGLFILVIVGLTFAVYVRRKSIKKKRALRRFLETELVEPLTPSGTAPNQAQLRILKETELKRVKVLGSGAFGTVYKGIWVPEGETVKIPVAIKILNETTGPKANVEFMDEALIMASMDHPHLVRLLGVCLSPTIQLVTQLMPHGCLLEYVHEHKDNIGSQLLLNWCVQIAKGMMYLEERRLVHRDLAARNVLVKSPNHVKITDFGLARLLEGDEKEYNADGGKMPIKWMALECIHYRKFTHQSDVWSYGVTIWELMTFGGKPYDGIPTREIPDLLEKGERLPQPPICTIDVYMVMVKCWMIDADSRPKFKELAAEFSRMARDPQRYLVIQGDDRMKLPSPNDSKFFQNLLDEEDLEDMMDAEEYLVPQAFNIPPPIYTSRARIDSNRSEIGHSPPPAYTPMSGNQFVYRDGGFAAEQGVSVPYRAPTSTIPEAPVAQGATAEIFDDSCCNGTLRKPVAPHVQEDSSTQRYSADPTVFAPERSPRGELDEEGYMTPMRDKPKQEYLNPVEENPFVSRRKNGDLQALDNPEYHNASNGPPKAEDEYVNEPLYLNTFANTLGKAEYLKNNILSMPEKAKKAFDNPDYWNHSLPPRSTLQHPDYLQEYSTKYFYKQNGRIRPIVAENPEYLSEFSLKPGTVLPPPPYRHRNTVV
Description: as §1, §2, §3

[3] = biological target: T2, Phosphorylation of Y223 of BTK (Homo sapiens, UniProt Q06187); assay: Whole blood compound screening, phosphorylation of Y223 site of BTK (MSD assay); format: cell-based; conditions: healthy human whole blood, 2 hours at 37° C., 3 separate donors; read-out: WB BTK-pY223 EC50
T2 construct: host or cells: healthy human whole blood, 3 donors
T2 sequence (Q06187 whole entry): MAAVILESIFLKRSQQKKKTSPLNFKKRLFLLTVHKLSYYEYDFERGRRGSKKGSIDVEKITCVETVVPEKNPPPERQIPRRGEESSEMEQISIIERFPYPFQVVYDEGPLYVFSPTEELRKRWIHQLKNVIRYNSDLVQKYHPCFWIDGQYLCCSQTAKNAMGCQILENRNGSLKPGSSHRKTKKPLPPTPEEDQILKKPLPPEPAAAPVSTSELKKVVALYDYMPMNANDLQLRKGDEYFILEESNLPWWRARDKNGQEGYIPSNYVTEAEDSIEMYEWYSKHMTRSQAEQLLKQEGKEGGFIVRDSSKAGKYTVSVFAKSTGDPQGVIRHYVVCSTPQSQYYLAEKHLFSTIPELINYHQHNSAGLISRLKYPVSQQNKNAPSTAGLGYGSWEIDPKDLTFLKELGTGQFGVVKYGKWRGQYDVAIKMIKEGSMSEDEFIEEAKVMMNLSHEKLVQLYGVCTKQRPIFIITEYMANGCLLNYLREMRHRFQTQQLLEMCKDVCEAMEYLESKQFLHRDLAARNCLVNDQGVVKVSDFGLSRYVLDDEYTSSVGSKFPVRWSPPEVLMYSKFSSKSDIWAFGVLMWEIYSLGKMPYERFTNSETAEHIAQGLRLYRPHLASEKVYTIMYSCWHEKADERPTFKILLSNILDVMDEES
Summary of the method: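 Heparinized human whole blood from 3 donors treated 2 h at 37 °C with compounds (8 points, top 10 μM, 1:4 dilution, 0.2% DMSO), then lysed. BTK pY223 quantified by MSD sandwich immunoassay (anti-BTK capture, anti-pY223 detection); EC50 from concentration response.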

C=CC(=O)N1CCN([C@@H]2CCNc3c2nn(-c2ccc(Oc4ccccc4)cc2)c3C(N)=O)CC1 [Example 6, (7R)-2-(4-phenoxyphenyl)-7-[4-(prop-2-enoyl)piperazin-1-yl]-4,5,6,7-tetrahydro-2H-pyrazolo[4,3-b]pyridine-3-carboxamide]
IC50 [1]: 15.2 nM | IC50 [2]: 757 nM | EC50 [3]: 24.1 nM
